Reference: US20120231140A1, “Organic Compounds” (GIVAUDAN SA, priority 2009, published 2012)

Assay: Sensory analysis of the umami enhancing thresholds in Model Broth by a panel of trained experts
Type: in vivo
Conditions: Model Broth (MSG, maltodextrin, sodium chloride, yeast extract in water); half-tongue test vs blank broth; geometric mean over panelists; read-out: Umami enhancement threshold concentration in "Model Broth" as calculated for the panel
Protocol: Sensory analysis of the umami enhancing thresholds of the compounds isolated from the ACN fraction of heated avocado pulp as described in example 1.
Water for sensory evaluation was commercially available table water (“Evian®”, Danone, Wiesbaden, Germany).
“Model Broth” contained monosodium L-glutamate monohydrate (MSG) (1.9 g), maltodextrin (6.375 g), sodium chloride (2.9 g) and yeast extract (2.1 g), in 1000 mL of water.
25 mg of each of the compounds listed hereinabove were separately dissolved in 0.2 mL ethanol, then 20.0 mL of model broth was added to each sample. Each sample was then diluted with model broth in 1:1(v/v) steps, until sets of nine solutions with dilution factors of 1, 2, 4, 8, 16, 32, 64, 128, and […] were obtained for each compound.
The samples were evaluated by a panel of trained experts.
The following sensorial evaluation procedure was followed for each set of samples containing a different compound of formula (I).
In a way that avoided any mixing, 1 mL of one of the sample solutions was applied to the left part of each panelists tongue, and 1 mL of Model Broth as a blank value/neutral reference was applied to the right part of the tongue. The panelists were asked to compare the taste on both halves of their tongues. After 5 to 30 seconds the panelists were then asked to rub their tongues against the roof of their mouths. Panelists were then asked if they could distinguish the sample from the blank (Model Broth).
After each sample, the oral cavity was rinsed with water and a break of 5 to 10 minutes was observed until the stimulus completely disappeared.
Multiple sample solutions were tested in this way, one after the other in ascending order of concentration, to determine the weakest concentration at which the compounds of formula (I) enhanced the umami taste of the model broth.
The calculation of the umami enhancement threshold was then performed as described in the literature (ASU: L 00.90-9, 1999), via the geometric mean.
By “umami enhancement threshold” is meant, the mean concentration at which a compound enhances the umami taste of a model broth.
For each panelist, the following formula was used to determine the mean umami enhancement threshold:
E=√{square root over (ce×ce−1)}
wherein ce is the concentration (in ppm) of the weakest concentration identified as having an umami enhancing effect, Ce−1 is the concentration (in ppm) of the anteceding sample solution and E is the mean umami enhancement threshold.
To calculate the mean umami enhancement threshold for the panel, the following formula was used: […]
Wherein n is the number of panelists, Ei is the product of the umami enhancement thresholds calculated for each panelist as specified above.
The panel calculated mean umami enhancement threshold for each compound is indicated in table1 below.

Row | Compound | minimal effective concentration
1 | CCCCCC=CCC=CCCCCCCCC(O)CC(O)COC(C)=O (centres unmarked) [1-acetoxy-2,4-dihydroxy-n-heneicosa-12,15-dien] | 0.7 µg/mL
2 | C=CCCCCCCCCCCCC(O)CC(O)COC(C)=O (centres unmarked) [1-acetoxy-2,4-dihydroxy-n-heptadeca-16-en] | 2.8 µg/mL
3 | C#CCCCCCCCCCCCC(O)CC(O)COC(C)=O (centres unmarked) [1-acetoxy-2,4-dihydroxy-n-heptadeca-16-yne] | 1.5 µg/mL
4 | C=CCCCCCCCCCCCC(=O)CC(O)COC(C)=O (centres unmarked) [1-acetoxy-2-hydroxy-4-keto-n-heptadeca-16-en] | 3.5 µg/mL
5 | CCCCCCCCCCCCCC(=O)CC(O)COC(C)=O (centres unmarked) [1-acetoxy-2-hydroxy-4-keto-n-heptadecane] | 5.6 µg/mL
6 | CCCCCC=CCCCCCCCC(=O)CC(O)COC(C)=O (centres unmarked) [1-acetoxy-2-hydroxy-4-keto-n-octadeca-12-en] | 1.8 µg/mL
7 | CCCCCC=CCC=CCCCCCC=CC(=O)CC(O)COC(C)=O (centres unmarked) [1-acetoxy-2-hydroxy-4-oxo-n-heneicosa-5,12,15-trien] | 0.7 µg/mL
8 | CCCCCC=CCC=CCCCCCCCC(=O)CC(O)COC(C)=O (centres unmarked) [1-acetoxy-2-hydroxy-4-oxo-n-heneicosa-12,15-dien] | 3.2 µg/mL
